Assay results taken from US20260364174A1, “Purpurin Analogs for Use in Photodynamic Therapy” (RMW Cho Group Limited, priority 2023, published 2026).

Experiments:
[1] = system: SKOV3 ovarian cancer cells; test: Phototoxicity: % viable SKOV3 cells (AlamarBlue) after incubation with photosensitizer and 680 nm LED activation; format: cell-based; details: Homo sapiens, SK-OV-3, light or radiation study, 24 h uptake, 50 mW/cm^2 for 5 mins (15 J/cm^2), viability after further 24 h
Description: (§1) Photosensitizers (e.g. purpurin analogue, chlorin e4 disodium (provided by Advanced Molecular Technologies, Scoresby) or Talaporfin sodium (purchased from Focus Bioscience cat #HY-16477-5MG)) were resuspended in 100% dimethylsulfoxide (DMSO) at a concentration of 5.5 mM. Samples were stored at 4 °C protected from light.
(§2) For in vitro experiments, photosensitizers (stock solution 5.5 mM in 100% DMSO) were diluted 1:100 in concentrated excipient solution (final 55 μM photosensitizer in 10% w/v Kollidon-12, 42.4% w/v polysorbate 80, 40% w/v ethanol, 1.0% DMSO). Serial dilutions were prepared in cell culture media (Dulbecco's Modified Eagle Medium/Nutrient Mixture F-12 (DMEM/F-12)) supplemented with 10% v/v Fetal Bovine Serum, 100 U/mL penicillin, 100 μg/mL streptomycin and the same excipient solution at a constant 1:55 dilution.
(§3) Human ovarian cancer cell line SKOV3 (ATCC #HTB-77) was maintained in Dulbecco's Modified Eagle Medium/Nutrient Mixture F-12 (DMEM/F-12), supplemented with […] Fetal Bovine Serum, 100 U/mL penicillin and 100 μg/mL streptomycin. Monolayer cultures were grown in a humidified incubator at 37 °C with 5% CO2. Once cells had reached ~80% confluence, spent media was replaced with media containing photosensitizer at the required concentration and cells were incubated for the desired period of time to allow photosensitizer uptake.
(§4) All data were analysed using GraphPad PRISM v8.3.1 (549) (GraphPad Software, CA). Spectral absorbance and viability measurements were normalized in the range 0-100%, with a minimum of 0 and a maximum value determined from the dataset. Dose response was determined using a sigmoidal four-point non-linear regression with variable slope, and IC10 or IC90 calculated for each compound. All data are shown as mean±SD (where appropriate).
(§5) SKOV3 cells were seeded in 96-well black wall plates (Greiner #655090) at a cell density of 5000 cells in 100 μl culture medium per well. On reaching ~60% confluence, media was aspirated and replaced with fresh media containing the relevant purpurin analogue from 0-100 μM in DMSO. Cells were incubated for a further 24 hours, allowing uptake of purpurin analogues.
To test for phototoxicity, cells incubated with purpurin analogues ([…] in DMSO) had culture media replaced after 24 hours (as above) and were then exposed to a 680 nm light-emitting diode (LED) panel (Invion) with optical power density at 50 mW/cm^2 for 5 mins (total 15 J/cm^2). Laser and LED exposure induce an equivalent response in relation to phototoxicity. Following activation, cells were cultured for a further 24 hours. Media was then replaced with fresh media containing AlamarBlue, and % viable cells remaining assessed as above. Controls included cells treated with purpurin analogues but not activated by laser light; cells without purpurin analogue treatment but with laser light; and untreated controls. All measurements were made in quadruplicate.
(§6) The phototoxicity and inherent cytotoxicity (i.e. “dark toxicity”) of purpurin analogues were assessed as previously using SKOV3 ovarian cancer cells. For comparative purposes, purpurin analogues were compared against chlorin e4 disodium and Talaporfin sodium, a clinically approved photosensitizer used in the photodynamic treatment of lung cancers. Phototoxicity IC90 values and dark toxicity IC10 values were calculated using a log[inhibitor]-vs normalized response dose curve with variable slope, using the formula Y=100/(1+(IC90/X)^HillSlope (phototoxicity IC90)) or Y=100/(1+(IC10/X)^HillSlope (dark toxicity IC10)).

[2] = system: SKOV3 ovarian cancer cells; test: Inherent cytotoxicity (dark toxicity): % viable SKOV3 cells (AlamarBlue) without light; format: cell-based, human; details: 24 h incubation, no light
Description: as §1, §2, §3, §4, §5
To test for inherent cytotoxicity (i.e. “dark toxicity”) of the purpurin analogues, the culture media was replaced after 24 hours with fresh media containing 10% (v/v) AlamarBlue Cell Viability Reagent (ThermoFisher) and cells incubated at 37 °C for 6 hours. Untreated cells were used as a control. Fluorescence (Ex 555 nm/Em 596 nm) was measured using a CLARIOstar Plus Microplate Readear (BMG Labtech), and cytotoxicity assessed according to the % viable cells remaining. All measurements were made in quadruplicate.
as §6

[3] = system: SKOV3 ovarian cancer cells; test: Therapeutic index (phototoxicity IC90 vs dark toxicity IC10); format: cell-based, human
Description: as §6
To evaluate the therapeutic potential of purpurin analogues, the therapeutic index (TI) was calculated. TI provides a quantitative measurement to describe relative drug safety, by comparing the drug concentration required for desirable effects versus the concentration resulting in undesirable off-target toxicity. TI was calculated using phototoxicity IC90 vs dark toxicity IC10.

[4] = system: indomethacin-induced gastric lesions; details: rats; cited from earlier work
[5] = system: TAA- or CCl4-induced acute liver injuries; details: mice; cited from earlier work

Compound | IC90 [1] [nM] | Dark toxicity (IC10) [2] [nM] | Therapeutic Index [3] | protective effect against indomethacin-induced gastric lesions [4] | protective effect against TAA- or CCl4-induced acute liver injuries [5]
C=Cc1c(C)c2cc3nc(c(C)c4[nH]c(cc5nc(cc1[nH]2)C(C)=C5CC)c(C)c4C(=O)O)[C@@H](CCC(=O)O)[C@@H]3C [Chlorin e4 disodium, chlorin e4 disodium, reference compound] | 21300 | 40230 | 1.89 | – | –
C=Cc1c(C)c2cc3nc(c(C)c4nc(cc5[nH]c(cc1[nH]2)c(C)c5CC)C(C)=C4C(=O)O)[C@@H](CCC(=O)O)[C@@H]3C [Chlorin e4] | – | – | – | protective effect against indomethacin-induced gastric lesions in rats | protective effect
CCCCCCN1C(=O)c2c3nc(cc4[nH]c(cc5nc(cc6[nH]c2c(c6C)C1=O)C(CC)=C5C)c(COC(=O)NCCC[P+](c1ccccc1)(c1ccccc1)c1ccccc1)c4C)[C@@H](C)[C@@H]3CCC(=O)OC [Compound 1, purpurin 18 13-(N-(3-triphenylphosphoniumpropyl)bromide)carbamate N-hexylimide methyl ester] | 46 | 79630 | 1731.09 | – | –
CCCCCCN1C(=O)c2c3nc(cc4[nH]c(cc5nc(cc6[nH]c2c(c6C)C1=O)C(CC)=C5C)c(COC(=O)CCCC[P+](c1ccccc1)(c1ccccc1)c1ccccc1)c4C)[C@@H](C)[C@@H]3CCC(=O)OC [Compound 2, purpurin 18 N-hexylimide 13-(oxopentyl)triphenylphosphonium bromide] | 27 | 77630 | 2875.19 | – | –
CCC1=C(C)c2cc3[nH]c(cc4nc(c5c6[nH]c(cc1n2)c(C)c6C(=O)N(CCOCCOC)C5=O)[C@@H](CCC(=O)OC)[C@@H]4C)c(C)c3COC(=O)NCCC[P+](c1ccccc1)(c1ccccc1)c1ccccc1 [Compound 3, purpurin 18 13-(N-(3-triphenylphosphoniumpropyl)bromide)carbamate N-(2-(2-methoxyethoxy)ethyl)imide methyl ester] | 102 | 50840 | 498.43 | – | –
C=Cc1c(C)c2cc3nc(c4c5[nH]c(cc6nc(cc1[nH]2)C(C)=C6CC)c(C)c5C(=O)N(CCC[P+](c1ccccc1)(c1ccccc1)c1ccccc1)C4=O)[C@@H](CCC(=O)N(C)CCOCCOC)[C@@H]3C [Compound 4, purpurin 18 N-(3-triphenylphosphoniumpropylbromide)imide N-(2-(2-methoxyethoxy)ethyl)-N-methyl-amide] | 10 | 49910 | 4991.00 | – | –
C=Cc1c(C)c2cc3nc(c4c5[nH]c(cc6nc(cc1[nH]2)C(C)=C6CC)c(C)c5C(=O)OC4=O)[C@@H](CCC(=O)NCCC[P+](c1ccccc1)(c1ccccc1)c1ccccc1)[C@@H]3C [Compound 5, purpurin 18 (N-(3-triphenylphosphoniumpropyl)bromide)amide] | 5 | 49880 | 9976.00 | – | –
C=Cc1c(C)c2cc3nc(c4c5[nH]c(cc6nc(cc1[nH]2)C(C)=C6CC)c(C)c5C(=O)N(CCOCCOC)C4=O)[C@@H](CCC(=O)NCCC[P+](c1ccccc1)(c1ccccc1)c1ccccc1)[C@@H]3C [Compound 6, purpurin 18 (N-(3-triphenylphosphoniumpropyl)bromide)amide N-(2-(2-methoxyethoxy)ethyl)imide] | 9 | 51070 | 5674.44 | – | –
CCCCCCN1C(=O)c2c3nc(cc4[nH]c(cc5nc(cc6[nH]c2c(c6C)C1=O)C(CC)=C5C)c(CN(C)C(=O)CCCC[P+](c1ccccc1)(c1ccccc1)c1ccccc1)c4C)[C@@H](C)[C@@H]3CCC(=O)OC [Compound 7, purpurin 18 N-hexylimide 13-(N-methyl-5-triphenylphosphonium bromidepentanamide) methyl ester] | 21 | 49400 | 2352.38 | – | –
C=Cc1c(C)c2cc3nc(c(CC(=O)N[C@@H](CC(=O)O)C(=O)O)c4[nH]c(cc5nc(cc1[nH]2)C(C)=C5CC)c(C)c4C(=O)O)[C@@H](CCC(=O)O)[C@@H]3C [Talaporfin sodium, reference compound] | – | 11100 | 0.49 | – | –
